Results taken from article PMC7504039, “Tetrapeptide Ac-HAEE-NH2 Protects α4β2 nAChR from Inhibition by Aβ” (International Journal of Molecular Sciences, 2020).
Entries after “also recorded” stand apart in the source; their conditions may differ. Where two headings read alike, the source gives them in different places. Where a SMILES comes first, the peptide text is derived from it.

Columns and labels:
immobilized Aβ16 = molecular target: T1, immobilized Aβ16 (Homo sapiens, UniProt P05067); experiment: Direct binding assay: surface plasmon resonance, tetrapeptides over immobilized Aβ16-G4-C; details: for Ka × 10^-2 M^-1: 10 mM HEPES pH 6.8, Ka = kon/koff, mean±SD of three independent measurements; for koff: read-out: koff × 10^-3 s^-1
T1 construct: purchased Biopeptide (San Diego, CA, USA); host or cells: chemical synthesis
Method: Surface plasmon resonance (SPR) was utilized to detect the direct binding of the tetrapeptides to immobilized Aβ16-G4-C. All SPR experiments were carried out on a BIAcore T100 instrument (GE Healthcare, IL, USA). Research grade sensor chips CM5 carrying the hydrophilic carboxymethylated dextran matrix, HEPES Buffered Saline (HBS) buffer (10 mM HEPES (4-(2-hydroxyethyl)-1-piperazineethanesulfonic acid)), pH 7.4, 150 mM NaCl, 3 mM EDTA, 0.005% surfactant P20), 1-ethyl-3-(3-dimethylaminopropyl)-carbodiimide (EDC), N-hydroxysuccinimide (NHS), 2-(2-pyridinyldithio)-ethaneamine (PDEA), and cysteine were purchased from Biacore (GE, Boston, MA, USA). All other chemicals and solvents were of HPLC-grade or better and were obtained from MilliporeSigma (St. Louis, MO, USA). All buffers were filtered (0.45 μm, nylon) prior to use.
Attachment of the synthetic peptide Aβ16-G4-C to the CM5 chip was performed according to the thiol bond formation protocol described in the Sensor surface handbook (GE Healthcare, Chicago, IL, USA). The carboxymethyl dextran matrix was activated by injection of a 1:1 mixture of EDC and NHS (30 μL, 400 mM EDC, 100 mM NHS) with the following injection of an 80 mM PDEA solution in 0.1 M sodium borate (pH 8.5). The Aβ16-G4-C solution was then injected into the activated flow cell (0.05 mg/mL peptide in 10 mM sodium acetate buffer, pH 4.5). Unreacted disulfide groups on the CM5 chip surface were capped with a 50 mM cysteine solution in 0.1 M sodium acetate buffer (pH 4.0). The change corresponding to the immobilization of Aβ16-G4-C was 1023 response units (RU). The flow rate used for all immobilization steps was 5 μL/min. An unmodified dextran surface was used as a reference surface.
Then, the binding affinities of the immobilized Aβ16-G4-C to the following peptide-analytes were measured. Samples of Ac-HAEE-NH2 and other tetrapeptides were prepared by dilution of respective stock solutions in the running buffer (10 mM HEPES, pH 6.8). Each analyte was diluted to different concentrations (0 μM, 50 μM, 100 μM, 200 μM, 500 μM, 1000 μM, 1500 μM, 2000 μM) and injected in multichannel mode (volume 50 μL and rate 10 μL/min) during 300 s. Then, the chip surface was exposed to the running buffer without analyte for 120 s. After each injection of the analyte, the surface was regenerated with 5 μL of the regeneration buffer (HBS buffer containing 10 mM HEPES, 3 mM EDTA, 0.005% surfactant P20 and 150 mM NaCl, pH 7.4). The signal from the reference surface was subtracted from the raw data, obtained from the flow cell with the immobilized ligand.
The kinetic rate constants were calculated from the sensorgrams by globally fitting the response curves obtained at various analyte concentrations using the Langmuir model (1:1 binding) in the BIAevaluation 4.1 program. The association (kon) and the dissociation (koff) rate constants were fitted simultaneously (1), dR/dt = kon C (Rmax − R) − koff R(1) where R stands for the biosensor response of the formed complex, C is the concentration of the analyte, and Rmax is the maximal theoretical value of the binding response for a given analyte.
Using the obtained data dissociation (Kd) constant was calculated from the ratios of the association (kon) and dissociation (koff) rate constants: Kd = koff/kon, Ka = kon/koff.

[1] = tested on: amyloid load in the brains; design: method as in PMID 26402624; details: injections; cited from earlier work
rat α4β2 nAChR = experiment: Two-electrode voltage clamp in Xenopus laevis oocytes expressing α4β2 nAChR; type: cell-based; details: for effect of washout with the peptide on current amplitude after Aβ42: 3 min, after 10 µM Aβ42
Method: Two-electrode voltage clamp electrophysiology on the α4β2 nAChR expressed in Xenopus laevis oocytes was performed according to previously published protocols [7]. Stage V ± VI Xenopus laevis oocytes were defolliculated with 1 mg/mL collagenase Type I (Life Technologies, Carlsbad, CA, USA) at room temperature (21–24 °C) for 2 h in Barth’s solution without calcium (88.0 mM NaCl, 1.1 mM KCl, 2.4 mM NaHCO3, 0.8 mM MgSO4, 15.0 mM HEPES/NaOH, pH 7.6). The oocytes were stored in Barth’s solution with calcium for 72–120 h (88.0 mM NaCl, 1.1 mM KCl, 2.4 mM NaHCO3, 0.3 mM Ca(NO3)2, 0.4 mM CaCl2, 0.8 mM MgSO4, 15.0 mM HEPES/NaOH, pH 7.6) supplemented with 63.0 μg/mL penicillin-G sodium salt, 40.0 μg/mL streptomycin sulfate.
Oocytes were injected with 3 ng plasmids coding the rat α4 and β2 nAChR subunits (pcDNA3.1 vector) in a molar ratio of 1:1 using an Auto-Nanoliter Injector NanoJect-2 (Drummond Scientific Company, Broomall, PA, USA) in a total injection volume of 23 nL. After injection, oocytes were incubated at 18 °C in Barth’s solution with calcium for 48–120 h. Electrophysiological recordings were made using a Turbo TEC-03X amplifier (npi electronic GmbH, Tamm, Germany) and WinWCP recording software (University of Strathclyde, Glasgow, UK). Oocytes were placed in a small recording chamber with a working volume of 50 μL and 100 μL of agonist (acetylcholine) solution in Barth’s buffer were applied to an oocyte. […] To allow receptor recovery from desensitization, the oocytes were superfused for 5–10 min with buffer (1 mL/min) between ligand applications. Electrophysiological recordings were performed at a holding potential of −60 mV.
Data are presented as means of at least three independent experiments ± SD. The comparison of data groups in electrophysiology studies was performed with ordinary one-way ANOVA. Post-hoc analysis was performed with the Tukey test. Shapiro-Wilk test was used to confirm the normality of the dataset. Statistical analysis was performed using GraphPad Prism 8.4.1 software (GraphPad Software Inc., CA, USA).

Aβ = details: previously shown; reference not given; cited from earlier work
Aβ16-G4-C, [Ac]-…-[NH2] = experiment: SPR; Aβ16-G4-C immobilised by thiol coupling on a CM5 chip (1023 RU), BIAcore T100; tetrapeptides injected at 0-2000 μM, 10 μL/min, 300 s; running buffer 10 mM HEPES, pH 6.8; global fit, Langmuir 1:1 model; Kd = koff/kon
[2] = Table S2, SPR, immobilized Aβ16, 25 °C
[3] = Table S2, SPR, immobilized Aβ16, 25 °C, 10 mM HEPES pH 6.8, mean±SD of three independent measurements, read-out: Kd × 10^4 M
[4] = Table S2, SPR, immobilized Aβ16, 25 °C, 10 mM HEPES pH 6.8, mean±SD of three independent measurements
[5] = Table S2, SPR, immobilized Aβ16, 25 °C, 10 mM HEPES pH 6.8, mean±SD of three independent measurements, read-out: kon × M^-1 s^-1
[6] = SPR, immobilized Aβ16, 10 mM HEPES pH 6.8
[7] = SPR, BIAcore T100, Aβ16-G4-C on CM5 chip, running buffer 10 mM HEPES pH 6.8, 1:1 Langmuir global fit, Kd = koff/kon, read-out: dissociation constant Kd

T1 sequence (P05067 with tags, fused parts or gaps limits assumed): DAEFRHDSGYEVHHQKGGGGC

Row | Molecule | Ka × 10^-2 M^-1 (immobilized Aβ16; [2]) | Kd (immobilized Aβ16; [3]) [µM] | koff (immobilized Aβ16; [4]) [s⁻¹] | kon (immobilized Aβ16; [5]) [M⁻¹ s⁻¹] | other results
1 | CC(=O)N[C@@H](CCCCN)C(=O)N[C@@H](C)C(=O)N[C@@H](CC(=O)O)C(=O)N[C@@H](CCC(=O)O)C(N)=O [#15, Ac-KADE-NH2] (Ac-KADE-NH2) | 2.2±0.1 × 10^-2 M^-1 | 4500 ± 300 | 0.0096 ± 0.0002 | 2.2 ± 0.1 | –
2 | Ac-KAEE-NH2 | – | – | – | – | binding to Aβ16 in the SPR assay (in words) (immobilized Aβ16; [6]): no binding was detected at all
3 | CC(=O)N[C@@H](CCC(=O)O)C(=O)N[C@@H](CC(=O)O)C(=O)N[C@@H](C)C(=O)N[C@@H](CCCCN)C(N)=O [#16, Ac-EDAK-NH2] (Ac-EDAK-NH2) | 0.141±0.009 × 10^-2 M^-1 | – | 0.0097 ± 0.0002 | 0.136 ± 0.006 | –
4 | CC(=O)N[C@@H](CC(=O)O)C(=O)N[C@@H](CCC(=O)O)C(=O)N[C@@H](C)C(=O)N[C@@H](CCCNC(=N)N)C(N)=O [#12, Ac-DEAR-NH2] (Ac-DEAR-NH2) | 5.1±0.2 × 10^-2 M^-1 | 1980 ± 70 | 0.00709 ± 9e-05 | 3.58 ± 0.08 | –
5 | CC(=O)N[C@@H](Cc1c[nH]cn1)C(=O)N[C@@H](C)C(=O)N[C@@H](CC(=O)O)C(=O)N[C@@H](CC(=O)O)C(N)=O [#1, Ac-HADD-NH2] (Ac-HADD-NH2) | 3.08±0.08 × 10^-2 M^-1 | 3250 ± 90 | 0.0104 ± 2e-05 | 3.2 ± 0.08 | –
6 | CC(=O)N[C@@H](CC(=O)O)C(=O)N[C@@H](CC(=O)O)C(=O)N[C@@H](C)C(=O)N[C@@H](CCCCN)C(N)=O [#4, Ac-DDAK-NH2] (Ac-DDAK-NH2) | 7.3±0.3 × 10^-2 M^-1 | 1370 ± 50 | 0.0062 ± 0.0001 | 4.57 ± 0.09 | –
7 | CC(=O)N[C@@H](CCCCN)C(=O)N[C@@H](C)C(=O)N[C@@H](CCC(=O)O)C(=O)N[C@@H](CC(=O)O)C(N)=O [#9, Ac-KAED-NH2] (Ac-KAED-NH2) | 3.1±0.6 × 10^-2 M^-1 | 3300 ± 700 | 0.019 ± 0.001 | 5.7 ± 0.9 | –
8 | CC(=O)N[C@@H](CC(=O)O)C(=O)N[C@@H](CC(=O)O)C(=O)N[C@@H](C)C(=O)N[C@@H](Cc1c[nH]cn1)C(N)=O [#2, Ac-DDAH-NH2] (Ac-DDAH-NH2) | – | – | 0.0154 ± 0.0001 | 0.52 ± 0.01 | Kd (immobilized Aβ16; read-out: Ka × 10^-2 M^-1 (converted)): 2970 µM
9 | CC(=O)N[C@@H](Cc1c[nH]cn1)C(=O)N[C@@H](C)C(=O)N[C@@H](CCC(=O)O)C(=O)N[C@@H](CCC(=O)O)C(N)=O [Ac-HAEE-NH2] (Ac-HAEE-NH2) | 110±40 × 10^-2 M^-1 | – | 3.5e-05 ± 8e-06 | – | amyloid load in the brains of AD model mice [1]: effectively reduce the amyloid load; effect of washout with the peptide on current amplitude after Aβ42 (rat α4β2 nAChR; 25 µM in washout buffer, 100 µM ACh): did not affect the current amplitude; effect of washout with the peptide on current amplitude after Aβ42 (rat α4β2 nAChR; 50 µM in washout buffer, 100 µM ACh): less so at 50 µM; effect on Aβ42-induced inhibition when co-applied with Aβ42 (rat α4β2 nAChR; 100 µM Ac-HAEE-NH2 (10-times molar excess) with 10 µM Aβ42, 3 min pre-incubation, 100 µM ACh): the degree of inhibition was reduced significantly; also recorded: reduced the inhibitory effect of Aβ42 by half; leakage current after washout with peptide-containing buffer (rat α4β2 nAChR; 100 µM Ac-HAEE-NH2 washout after 10 µM Aβ42 and buffer washout): reduced the leakage current almost to the control values; effect of washout with the peptide on current amplitude after Aβ42 (rat α4β2 nAChR; 100 µM in washout buffer, 100 µM ACh): fully revoked the inhibition induced by Aβ42; also recorded: most effective at 100 µM; amplitude of ACh-evoked currents after washout with the peptide (over the range tested) (rat α4β2 nAChR; 25–100 µM in washout buffer after 10 µM Aβ42, 100 µM ACh): dose-dependently returned to the control levels; also recorded: completely restored the receptor response; effect on ACh-evoked current in the absence of Aβ42 (rat α4β2 nAChR; α4β2 nAChR-expressing oocytes): did not affect ACh-evoked current; currents induced by the peptide itself (rat α4β2 nAChR; α4β2 nAChR-expressing oocytes, no ACh): did not induce any currents; Kd (immobilized Aβ16; [7]): 90 µM; kon (immobilized Aβ16; SPR, immobilized Aβ16, 10 mM HEPES pH 6.8, read-out: kon): 0.37 M⁻¹ s⁻¹; zinc-dependent oligomerization of Aβ (Aβ): prevent zinc-dependent oligomerization of Aβ
10 | CC(=O)N[C@@H](CCCNC(=N)N)C(=O)N[C@@H](C)C(=O)N[C@@H](CC(=O)O)C(=O)N[C@@H](CC(=O)O)C(N)=O [Ac-RADD-NH2] (Ac-RADD-NH2) | 800±100 × 10^-2 M^-1 | – | 0.00024 ± 4e-05 | 18.5 ± 0.1 | Kd (immobilized Aβ16; [7]): 13 µM
11 | CC(=O)N[C@@H](CCCNC(=N)N)C(=O)N[C@@H](C)C(=O)N[C@@H](CCC(=O)O)C(=O)N[C@@H](CCC(=O)O)C(N)=O [Ac-RAEE-NH2] (Ac-RAEE-NH2) | 1.3±0.1 × 10^-2 M^-1 | 7700 ± 600 | 0.0112 ± 8e-05 | 1.5 ± 0.1 | binding to Aβ16 in the SPR assay (in words) (immobilized Aβ16; [6]): two orders of magnitude weaker binding than Ac-HAEE-NH2
12 | CC(=O)N[C@@H](CCC(=O)O)C(=O)N[C@@H](CC(=O)O)C(=O)N[C@@H](C)C(=O)N[C@@H](CCCNC(=N)N)C(N)=O [#18, Ac-EDAR-NH2] (Ac-EDAR-NH2) | 0.28±0.03 × 10^-2 M^-1 | – | 0.0047 ± 0.0001 | 0.13 ± 0.01 | –
13 | Ac-RADD-NH2 [Ac-RADD-NH2] | – | – | – | – | Kd (Aβ16-G4-C, [Ac]-…-[NH2]): 13 µM
14 | Ac-HAEE-NH2 [Ac-HAEE-NH2 tetrapeptide] | – | – | – | – | Kd (Aβ16-G4-C, [Ac]-…-[NH2]): 90 µM; koff (Aβ16-G4-C, [Ac]-…-[NH2]): 4e-05 s⁻¹; kon (Aβ16-G4-C, [Ac]-…-[NH2]): 0.37 M⁻¹ s⁻¹
